The target in one experiment is SpCas9 (Streptococcus pyogenes serotype M1, UniProt Q99ZW2). The experiment can be described thus: mKate2 expression (knockdown) assay. It is filed as cell-based. Particulars: for activity in mKate2 assay: HEK293 cells, 1.5-5 μM, 24 h. Here is the method: mKate2 expression assay. Approximately 8,000 cells/well were plated in a 96-well format 24 h before transiently transfected with 100 ng of either CgRNA (Addgene Plasmid #64955) or T1gRNA (Addgene Plasmid #62717) plasmids using lipofectamine 2000 (Life Technologies). Transfected cells were allowed to grow in the indicated amount of compound or DMSO for 24 h. Cells were then fixed using 4% paraformaldehyde and imaged with the HCS NuclearMask™ Blue Stain (Life Technologies) as the nuclear counter-staining agent. Imaging was performed with an IXM 137204 ImageXpress Automated High Content Microscope (Molecular Devices) at 20× magnification under two excitation channels (blue and red) with 9 acquiring sites per well. Images were analyzed in the MetaXpress software to determine the % mKate2 positive cells and the % NHEJ was calculated following a reported protocol and plotted using GraphPad Prism 6. The Z′-value was calculated following the formula: […]

The target in experiment [1] is T1, dCas9-cytidine deaminase conjugate (BE3) (UniProt P14739+P38483+Q99ZW2, D10A).
T1 construct: made in house; host or cells: E. coli BL21 Star (DE3); purified protein:sgRNA complex lipofected into HEK293T cells
The experiment can be described thus: BE3 base-editing of EMX1 gene in HEK293T cells. It counts as cell-based. Particulars: 1.25-20 μM, 72 h. Here is the method:
Protein transfection of base editor BE3 into HEK293T cells. HEK293T cells were seeded on 48-well BioCoat poly-D-lysine plates (Corning) in 250 μL of antibiotic-free medium and transfected at ˜70% confluency. Prior to protein transfection, cells were incubated with 2 μL of DMSO-suspended BRD7087 or BRD5779 at the indicated concentration for 2-3 hours. BE3 protein was incubated with 1.1× molar excess of EMX1-targeting sgRNA at a final concentration ratio of 200 nM. 220 nM (based on a total well volume of 275 μL). The complex was mixed with 0.2 μL of compound for five minutes, incubated with 1.5 μL Lipofectamine 2000 (Thermo Fisher) and transfected according to the manufacturer's protocol plasmid delivery. […]
Purifications and sequencing of genomic DNA. […] Barcoded samples were pooled and purified by gel extraction (Qiagen) before quantification using the Qubit dsDNA HS Kit (Thermo Fisher) and qPCR (KAPA BioSystems) according to the manufacturer's instructions. Sequencing of pooled samples was performed using a single-end read from 260 to 300 bases on the MiSeq (Illumina) according to the manufacturer's instructions.
Analysis of base-edited sequences. Nucleotide frequencies were analyzed using a previously described MATLAB script 5. Briefly, the reads were aligned to the reference sequence via the Smith-Waterman algorithm. […]

Two molecules from patent publication US11760984B2, “CRISPR protein inhibitors” (THE BROAD INSTITUTE, INC., priority 2017, dated 2023) can be followed below.

“Also recorded” adds a separate entry of the source.

Chain of SpCas9 (Q99ZW2 whole entry): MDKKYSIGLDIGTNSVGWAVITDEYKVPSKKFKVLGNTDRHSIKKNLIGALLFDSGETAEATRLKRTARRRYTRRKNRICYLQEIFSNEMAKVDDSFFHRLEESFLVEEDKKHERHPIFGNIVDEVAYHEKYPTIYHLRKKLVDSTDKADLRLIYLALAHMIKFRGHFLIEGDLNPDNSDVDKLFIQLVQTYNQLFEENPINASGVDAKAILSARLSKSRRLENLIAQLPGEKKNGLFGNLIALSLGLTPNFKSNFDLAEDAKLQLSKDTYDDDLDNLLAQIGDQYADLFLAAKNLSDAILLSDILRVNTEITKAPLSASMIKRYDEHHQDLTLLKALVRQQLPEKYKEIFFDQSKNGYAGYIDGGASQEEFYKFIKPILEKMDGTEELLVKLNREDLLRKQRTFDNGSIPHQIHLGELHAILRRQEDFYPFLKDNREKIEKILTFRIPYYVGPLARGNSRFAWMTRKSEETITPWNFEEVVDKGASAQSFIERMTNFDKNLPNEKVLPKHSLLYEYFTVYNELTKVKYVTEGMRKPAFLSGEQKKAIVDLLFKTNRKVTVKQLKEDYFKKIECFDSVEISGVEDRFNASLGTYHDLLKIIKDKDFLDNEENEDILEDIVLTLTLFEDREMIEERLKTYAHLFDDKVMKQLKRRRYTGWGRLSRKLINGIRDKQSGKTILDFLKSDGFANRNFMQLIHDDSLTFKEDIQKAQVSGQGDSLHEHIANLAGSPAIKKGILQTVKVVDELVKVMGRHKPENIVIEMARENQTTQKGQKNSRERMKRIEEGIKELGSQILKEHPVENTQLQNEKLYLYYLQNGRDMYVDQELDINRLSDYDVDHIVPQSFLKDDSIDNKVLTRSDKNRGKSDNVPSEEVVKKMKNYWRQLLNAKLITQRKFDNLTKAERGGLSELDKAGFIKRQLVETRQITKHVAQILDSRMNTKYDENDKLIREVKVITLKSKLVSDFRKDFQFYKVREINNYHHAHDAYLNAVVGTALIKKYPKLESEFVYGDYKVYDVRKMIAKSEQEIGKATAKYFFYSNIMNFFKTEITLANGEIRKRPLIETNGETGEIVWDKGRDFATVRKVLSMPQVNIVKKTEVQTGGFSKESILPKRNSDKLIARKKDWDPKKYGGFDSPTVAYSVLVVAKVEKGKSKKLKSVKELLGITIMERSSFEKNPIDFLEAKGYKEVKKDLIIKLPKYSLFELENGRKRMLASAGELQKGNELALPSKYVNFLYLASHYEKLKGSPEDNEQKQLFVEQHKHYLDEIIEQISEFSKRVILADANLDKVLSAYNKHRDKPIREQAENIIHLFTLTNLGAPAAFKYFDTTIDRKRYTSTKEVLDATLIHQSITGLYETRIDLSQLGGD

Regarding `COc1ccc(-c2ccc3c(c2)[C@H]2[C@H](CCN2Cc2ccncc2)[C@@H](CO)N3)cc1` [BRD5779, ((3aR,4S,9bR)-8-(4-Methoxyphenyl)-1-(pyridin-4-ylmethyl)-2,3,3a,4,5,9b-hexahydro-1H-pyrrolo[3,2-c]quinolin-4-yl)methanol], at SpCas9, the “activity in mKate2 assay” value is listed as “Dose-dependent recovery of the mKate2 signal”. Besides, in experiment [1], the “inhibition of BE3-mediated base-editing (C→T conversion, words)” value was “efficient and dose-dependent inhibition”.
By IC50 is commonly meant the midpoint of a concentration-inhibition curve. Read a low IC50 as higher potency. As for `OC[C@H]1Nc2ccc(-c3cccc(F)c3)cc2[C@H]2[C@@H]1CCN2Cc1ccncc1` [BRD7087, ((3aR,4S,9bR)-8-(3-Fluorophenyl)-1-(pyridin-4-ylmethyl)-2,3,3a,4,5,9b-hexahydro-1H-pyrrolo[3,2-c]quinolin-4-yl)methanol], on SpCas9, the IC50 is about 5 µM and the “activity in mKate2 assay” value is reported as “Dose-dependent recovery of the mKate2 signal; also recorded: more active than BRD5779”. The “inhibition of BE3-mediated base-editing (C→T conversion, words)” value in experiment [1] was “efficient and dose-dependent inhibition”.
